Results on 1 compound are retold here after publication PMC5008386, “Oridonin, a novel lysine acetyltransferases inhibitor, inhibits proliferation and induces apoptosis in gastric cancer cells through p53- and caspase-3-mediated mechanisms” (Oncotarget, 2016).

One may read the IC50 as the concentration that inhibits the measured activity by half. High values mean a need for much substance, low ones inhibition by little substance.

Each structure is given as a SMILES string.

This assay has as its target T1, P300 (Homo sapiens, UniProt Q09472).
T1 construct: gene EP300
Description: fluorogenic P300 acetyltransferase assay; also [3H]-acetyl CoA autoradiography and BLI (Octet RED96) with biotinylated oridonin. The format is biochemical. (In general: BLI is a label-free optical method that tracks binding on a fibre tip over time.)

T1 sequence (Q09472 2-2414): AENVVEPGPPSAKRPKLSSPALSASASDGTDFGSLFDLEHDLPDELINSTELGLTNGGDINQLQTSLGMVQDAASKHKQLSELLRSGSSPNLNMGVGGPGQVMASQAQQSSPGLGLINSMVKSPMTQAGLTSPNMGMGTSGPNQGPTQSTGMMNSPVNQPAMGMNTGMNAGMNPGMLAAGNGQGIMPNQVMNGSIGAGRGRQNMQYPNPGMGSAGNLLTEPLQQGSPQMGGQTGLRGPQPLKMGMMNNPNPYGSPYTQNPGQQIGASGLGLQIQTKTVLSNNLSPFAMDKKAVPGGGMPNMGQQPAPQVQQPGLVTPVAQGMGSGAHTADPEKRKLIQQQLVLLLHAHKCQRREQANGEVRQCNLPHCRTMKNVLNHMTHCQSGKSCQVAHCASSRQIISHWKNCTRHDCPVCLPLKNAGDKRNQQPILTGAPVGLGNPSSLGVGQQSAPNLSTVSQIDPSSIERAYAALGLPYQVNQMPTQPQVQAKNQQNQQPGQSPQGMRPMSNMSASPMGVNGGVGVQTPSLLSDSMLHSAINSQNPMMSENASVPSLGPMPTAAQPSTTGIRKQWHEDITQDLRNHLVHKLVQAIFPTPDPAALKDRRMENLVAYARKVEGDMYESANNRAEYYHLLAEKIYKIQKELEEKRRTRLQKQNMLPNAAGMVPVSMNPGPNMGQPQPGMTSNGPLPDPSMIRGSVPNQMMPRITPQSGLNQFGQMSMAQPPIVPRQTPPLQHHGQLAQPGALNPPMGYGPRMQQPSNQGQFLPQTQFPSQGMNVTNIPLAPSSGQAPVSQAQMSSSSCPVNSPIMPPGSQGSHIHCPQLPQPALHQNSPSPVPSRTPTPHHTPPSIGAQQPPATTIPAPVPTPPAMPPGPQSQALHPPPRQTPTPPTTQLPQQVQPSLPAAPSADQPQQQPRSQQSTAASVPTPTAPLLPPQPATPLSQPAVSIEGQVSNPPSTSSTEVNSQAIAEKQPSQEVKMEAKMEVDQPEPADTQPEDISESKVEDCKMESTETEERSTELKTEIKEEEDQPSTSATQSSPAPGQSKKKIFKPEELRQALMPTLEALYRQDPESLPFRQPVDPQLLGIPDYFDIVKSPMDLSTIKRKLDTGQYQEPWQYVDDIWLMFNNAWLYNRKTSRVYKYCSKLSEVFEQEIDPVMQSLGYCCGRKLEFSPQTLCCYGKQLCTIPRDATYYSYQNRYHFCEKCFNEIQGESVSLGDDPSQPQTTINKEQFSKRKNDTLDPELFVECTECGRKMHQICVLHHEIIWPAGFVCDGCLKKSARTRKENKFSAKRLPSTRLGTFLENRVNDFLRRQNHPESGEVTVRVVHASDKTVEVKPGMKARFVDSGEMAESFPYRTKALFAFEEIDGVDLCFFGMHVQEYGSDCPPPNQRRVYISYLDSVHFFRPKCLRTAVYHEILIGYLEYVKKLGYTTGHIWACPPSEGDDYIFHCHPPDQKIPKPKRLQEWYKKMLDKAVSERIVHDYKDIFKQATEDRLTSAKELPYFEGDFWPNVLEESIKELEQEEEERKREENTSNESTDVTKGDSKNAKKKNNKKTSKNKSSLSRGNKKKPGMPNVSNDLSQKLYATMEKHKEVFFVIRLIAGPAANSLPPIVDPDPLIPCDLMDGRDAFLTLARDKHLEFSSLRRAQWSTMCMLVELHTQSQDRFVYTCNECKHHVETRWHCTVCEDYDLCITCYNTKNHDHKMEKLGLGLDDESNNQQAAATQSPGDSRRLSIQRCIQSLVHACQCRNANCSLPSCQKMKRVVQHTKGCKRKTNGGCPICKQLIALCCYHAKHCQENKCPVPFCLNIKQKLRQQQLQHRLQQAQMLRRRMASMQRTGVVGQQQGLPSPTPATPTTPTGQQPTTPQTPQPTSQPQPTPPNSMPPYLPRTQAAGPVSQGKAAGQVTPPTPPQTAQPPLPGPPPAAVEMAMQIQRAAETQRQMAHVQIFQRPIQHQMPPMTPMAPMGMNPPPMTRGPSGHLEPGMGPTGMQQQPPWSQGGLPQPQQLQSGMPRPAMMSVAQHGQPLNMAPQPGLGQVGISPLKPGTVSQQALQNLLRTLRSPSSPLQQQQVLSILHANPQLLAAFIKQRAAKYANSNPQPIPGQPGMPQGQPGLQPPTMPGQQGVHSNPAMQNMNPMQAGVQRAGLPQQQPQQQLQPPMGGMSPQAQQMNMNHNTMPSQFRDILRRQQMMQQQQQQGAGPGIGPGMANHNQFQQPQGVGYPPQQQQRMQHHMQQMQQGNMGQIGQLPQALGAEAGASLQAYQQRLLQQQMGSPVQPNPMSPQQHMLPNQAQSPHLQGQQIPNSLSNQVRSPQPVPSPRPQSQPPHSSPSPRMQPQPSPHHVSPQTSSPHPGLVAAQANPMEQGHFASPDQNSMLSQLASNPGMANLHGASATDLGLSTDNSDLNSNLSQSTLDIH

`C=C1C(=O)[C@]23[C@H](O)[C@H]1CC[C@H]2[C@@]12CO[C@]3(O)[C@@H](O)[C@@H]1C(C)(C)CC[C@@H]2O` [oridonin] gave an IC50 of approximately 5 µM.
